From US20090118332A1, “Therapeutic Agents - 551” (AstraZeneca AB, priority 2006, published 2009) come the findings set out here.

The structures appear in SMILES notation.

The target in one test is T1, human Fatty Acid Synthase (Homo sapiens, UniProt P49327).
T1 construct: made in house
T1 sequence (P49327 whole entry): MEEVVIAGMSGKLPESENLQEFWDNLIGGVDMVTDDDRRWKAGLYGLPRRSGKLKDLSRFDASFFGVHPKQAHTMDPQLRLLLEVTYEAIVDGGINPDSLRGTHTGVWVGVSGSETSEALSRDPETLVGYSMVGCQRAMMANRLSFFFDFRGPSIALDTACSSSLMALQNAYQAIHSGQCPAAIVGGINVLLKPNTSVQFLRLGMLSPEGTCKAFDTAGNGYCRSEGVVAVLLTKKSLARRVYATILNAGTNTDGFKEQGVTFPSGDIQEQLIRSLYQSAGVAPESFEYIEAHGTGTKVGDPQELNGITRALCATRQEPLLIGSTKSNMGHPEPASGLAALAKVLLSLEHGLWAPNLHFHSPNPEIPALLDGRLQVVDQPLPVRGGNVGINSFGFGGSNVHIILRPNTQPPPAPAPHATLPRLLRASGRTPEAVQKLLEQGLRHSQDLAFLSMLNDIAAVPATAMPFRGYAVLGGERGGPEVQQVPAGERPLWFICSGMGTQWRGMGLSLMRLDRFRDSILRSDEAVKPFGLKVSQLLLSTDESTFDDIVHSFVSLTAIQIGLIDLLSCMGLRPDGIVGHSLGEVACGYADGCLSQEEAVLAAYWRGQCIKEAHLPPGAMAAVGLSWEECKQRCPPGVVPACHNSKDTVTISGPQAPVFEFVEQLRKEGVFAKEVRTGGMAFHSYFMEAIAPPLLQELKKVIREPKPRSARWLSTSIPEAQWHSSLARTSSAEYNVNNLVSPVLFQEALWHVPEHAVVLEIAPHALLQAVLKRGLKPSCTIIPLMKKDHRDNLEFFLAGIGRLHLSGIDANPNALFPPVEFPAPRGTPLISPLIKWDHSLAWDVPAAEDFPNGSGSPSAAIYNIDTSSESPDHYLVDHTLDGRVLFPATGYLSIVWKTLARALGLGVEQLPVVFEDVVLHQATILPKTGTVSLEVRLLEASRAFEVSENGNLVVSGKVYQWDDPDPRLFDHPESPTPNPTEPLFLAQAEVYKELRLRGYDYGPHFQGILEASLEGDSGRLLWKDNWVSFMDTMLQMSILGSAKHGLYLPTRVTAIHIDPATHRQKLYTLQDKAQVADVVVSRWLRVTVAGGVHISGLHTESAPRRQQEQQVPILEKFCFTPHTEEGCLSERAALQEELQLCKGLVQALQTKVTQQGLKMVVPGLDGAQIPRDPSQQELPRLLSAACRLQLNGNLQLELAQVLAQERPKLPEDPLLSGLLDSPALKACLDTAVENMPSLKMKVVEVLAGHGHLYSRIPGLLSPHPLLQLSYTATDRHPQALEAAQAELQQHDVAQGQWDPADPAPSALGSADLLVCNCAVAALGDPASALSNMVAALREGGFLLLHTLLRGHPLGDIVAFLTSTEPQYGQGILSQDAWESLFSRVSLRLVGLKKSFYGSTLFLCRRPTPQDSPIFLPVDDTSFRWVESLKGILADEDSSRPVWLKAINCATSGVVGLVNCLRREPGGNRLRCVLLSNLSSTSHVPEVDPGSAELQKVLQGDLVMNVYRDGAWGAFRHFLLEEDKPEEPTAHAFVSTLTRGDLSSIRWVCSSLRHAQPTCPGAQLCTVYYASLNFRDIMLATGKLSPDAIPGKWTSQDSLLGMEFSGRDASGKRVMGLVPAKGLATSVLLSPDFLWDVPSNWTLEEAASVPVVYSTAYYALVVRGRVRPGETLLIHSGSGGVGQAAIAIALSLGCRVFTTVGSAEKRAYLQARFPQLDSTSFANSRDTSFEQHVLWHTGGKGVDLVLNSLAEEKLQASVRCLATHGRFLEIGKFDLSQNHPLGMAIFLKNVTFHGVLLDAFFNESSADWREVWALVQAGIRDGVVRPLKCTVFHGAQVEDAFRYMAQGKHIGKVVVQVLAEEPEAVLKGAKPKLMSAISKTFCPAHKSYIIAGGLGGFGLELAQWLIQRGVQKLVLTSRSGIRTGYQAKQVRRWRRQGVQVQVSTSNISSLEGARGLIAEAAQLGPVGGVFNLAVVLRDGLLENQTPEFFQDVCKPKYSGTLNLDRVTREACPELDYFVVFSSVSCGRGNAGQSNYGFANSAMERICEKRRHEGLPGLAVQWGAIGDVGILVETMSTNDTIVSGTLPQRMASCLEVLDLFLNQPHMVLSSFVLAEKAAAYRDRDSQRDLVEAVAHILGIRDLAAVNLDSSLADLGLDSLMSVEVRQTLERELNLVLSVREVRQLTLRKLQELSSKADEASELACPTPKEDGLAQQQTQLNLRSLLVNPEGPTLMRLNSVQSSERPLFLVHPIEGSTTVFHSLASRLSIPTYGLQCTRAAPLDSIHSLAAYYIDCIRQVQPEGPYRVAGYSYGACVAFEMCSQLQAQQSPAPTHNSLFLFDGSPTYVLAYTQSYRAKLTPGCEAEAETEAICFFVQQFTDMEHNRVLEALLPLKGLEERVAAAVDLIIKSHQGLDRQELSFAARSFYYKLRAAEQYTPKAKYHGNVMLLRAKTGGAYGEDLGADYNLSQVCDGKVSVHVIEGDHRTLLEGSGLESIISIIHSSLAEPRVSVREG
The test can be described thus: Human FAS enzyme assay (decrease in NADPH fluorescence). Format: biochemical. The conditions noted are these: % inhibition at a concentration of 100 μmolar. The method in brief:
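In-house human FAS was preincubated with compound and NADPH for 15 min at room temperature in 0.1 M Tris pH 7.5 with EDTA, glutathione and BSA. Malonyl CoA and acetyl CoA (500 μM and 150 μM in the added mix) were then added for 60 min. IC50 came from time-zero-subtracted NADPH fluorescence (340/460 nm).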
In the case of `CCC(=O)NCCNC(=O)Nc1cc(C(=O)N2CCC(c3ccc(C#N)cc3)CC2)ccc1C` [Example 111, N-[2-[[5-[4-(4-cyanophenyl)piperidine-1-carbonyl]-2-methyl-phenyl]carbamoylamino]ethyl]propanamide], the inhibition at 100 µM came to 95.6%.

Take `Cc1ccc(C(=O)N2CCC(c3ccc(C#N)cc3)CC2)cc1NC(=O)NCC(C)O` (stereo not drawn) [Example 183, 1-[5-[4-(4-cyanophenyl)piperidine-1-carbonyl]-2-methyl-phenyl]-3-(2-hydroxypropyl)urea]: the inhibition at 100 µM amounted to 89.6%.

Regarding `Cc1cc(C)c(C(=O)N2CCC(c3ccc(C#N)cc3)CC2)cc1NC(=O)NC(C)C` [Example 13, 3-[5-[4-(4-cyanophenyl)piperidine-1-carbonyl]-2,4-dimethyl-phenyl]-1-propan-2-yl-urea], the inhibition at 100 µM stood at 84.8%.

`COCc1ccc(C(=O)N2CCC(c3ccc(C#N)cc3)CC2)cc1NC(=O)NC(C)C` [Example 365, 3-[5-[4-(4-cyanophenyl)piperidine-1-carbonyl]-2-(methoxymethyl)phenyl]-1-propan-2-ylurea]: the inhibition at 100 µM was 82.5%.

In the case of `Cc1ccc(C(=O)N2CCC(c3ccc(C(F)(F)F)cc3)CC2)cc1NC(=O)NC1CCCN(C(=O)OC(C)(C)C)C1` (stereo not drawn) [Example 333, tert-butyl 3-[[2-methyl-5-[4-[4-(trifluoromethyl)phenyl]piperidine-1-carbonyl]phenyl]carbamoylamino]piperidine-1-carboxylate], the inhibition at 100 µM was determined as 90.9%.

Regarding `Cc1ccc(C(=O)N2CCC(c3ccc(C#N)cc3)CC2)cc1NC(=O)N[C@@H](CC(C)C)C(N)=O` [Example 73, (2S)-2-[[5-[4-(4-cyanophenyl)piperidine-1-carbonyl]-2-methyl-phenyl]carbamoylamino]-4-methyl-pentanamide], the inhibition at 100 µM came out at 78.2%.

As for `Cc1ccc(C(=O)N2CCC(c3ccc(C#N)cc3)CC2)cc1NC(=O)NCCCCCNC(=O)N1CCOCC1` [Example 173, N-[5-[[5-[4-(4-cyanophenyl)piperidine-1-carbonyl]-2-methyl-phenyl]carbamoylamino]pentyl]morpholine-4-carboxamide], the inhibition at 100 µM is 95.5%.

`CC(=O)N1CCC(NC(=O)Nc2cc(C(=O)N3CCC(c4ccc(C#N)cc4)CC3)ccc2C)CC1` [Example 282, 3-(1-acetyl-4-piperidyl)-1-[5-[4-(4-cyanophenyl)piperidine-1-carbonyl]-2-methyl-phenyl]urea]: the inhibition at 100 µM came to 95%.

As to `CC(=O)NC1CN(C(=O)Nc2cc(C(=O)N3CCC(c4ccc(C#N)cc4)CC3)ccc2C)C1` [Example 312, 3-acetamido-N-[5-[4-(4-cyanophenyl)piperidine-1-carbonyl]-2-methyl-phenyl]azetidine-1-carboxamide], the inhibition at 100 µM was 88.8%.

Consider `Cc1ccc(C(=O)N2CCC(c3ccc(C#N)cc3)CC2)cc1NC(=O)N[C@H]1CCN(S(C)(=O)=O)C1` [Example 221, 1-[5-[4-(4-cyanophenyl)piperidine-1-carbonyl]-2-methyl-phenyl]-3-[(3S)-1-methylsulfonylpyrrolidin-3-yl]urea], for which the inhibition at 100 µM stood at 102%.

For `CCCS(=O)(=O)NCCNC(=O)Nc1cc(C(=O)N2CCC(c3ccc(C#N)cc3)CC2)ccc1C` [Example 174, 3-[5-[4-(4-cyanophenyl)piperidine-1-carbonyl]-2-methyl-phenyl]-1-[2-(propylsulfonylamino)ethyl]urea], the inhibition at 100 µM amounted to 97.4%.

In the case of `Cc1ccc(NC(=O)NCc2ccccc2F)cc1C(=O)N1CCC(c2ccc(C#N)cc2)CC1` [Example 23, 1-[3-[4-(4-cyanophenyl)piperidine-1-carbonyl]-4-methyl-phenyl]-3-[(2-fluorophenyl)methyl]urea], the inhibition at 100 µM stood at 77%.

Turning to `Cc1ccc(C(=O)N2CCC(c3ccc(C#N)cc3)CC2)cc1NC(=O)NC1CCC(N(C)C)CC1` (stereo not drawn) [Example 256, 1-[5-[4-(4-cyanophenyl)piperidine-1-carbonyl]-2-methyl-phenyl]-3-(4-dimethylaminocyclohexyl)urea], the inhibition at 100 µM turned out to be 98.7%.

For the compound `Cc1ccc(C(=O)N2CCC(c3ccc(C#N)cc3)CC2)cc1NC(=O)NCCN1CCCC1=O` [Example 176, 1-[5-[4-(4-cyanophenyl)piperidine-1-carbonyl]-2-methyl-phenyl]-3-[2-(2-oxopyrrolidin-1-yl)ethyl]urea], the inhibition at 100 µM came out at 92.6%.

Regarding `Cc1ccc(C(=O)N2CCC(c3ccc(C#N)cc3)CC2)cc1NC(=O)NCc1nnn[nH]1` [Example 82, 1-[5-[4-(4-cyanophenyl)piperidine-1-carbonyl]-2-methyl-phenyl]-3-(1H-tetrazol-5-ylmethyl)urea], the inhibition at 100 µM turned out to be 82%.

For the compound `Cc1ccc(C(=O)N2CCC(c3ccc(C#N)cc3)CC2)cc1NC(=O)NCc1ccncc1` [Example 36, 1-[5-[4-(4-cyanophenyl)piperidine-1-carbonyl]-2-methyl-phenyl]-3-(pyridin-4-ylmethyl)urea], the inhibition at 100 µM stood at 93.8%.

Turning to `COCCCCNC(=O)Nc1cc(C(=O)N2CCC(c3ccc(C#N)cc3)CC2)ccc1C` [Example 252, 1-[5-[4-(4-cyanophenyl)piperidine-1-carbonyl]-2-methyl-phenyl]-3-(4-methoxybutyl)urea], the inhibition at 100 µM stood at 99.4%.

On to `Cc1ccc(C(=O)N2CCC(c3ccc(C#N)cc3)CC2)cc1NC(=O)NCc1ccc(F)c(F)c1` [Example 56, 1-[5-[4-(4-cyanophenyl)piperidine-1-carbonyl]-2-methyl-phenyl]-3-[(3,4-difluorophenyl)methyl]urea], for which the inhibition at 100 µM turned out to be 105%.

Regarding `Cc1ccc(C(=O)N2CCC(c3ccc(C#N)cc3)CC2)cc1NC(=O)NC(C)COc1ccccc1` (racemic) [Example 253, (RS)-1-[5-[4-(4-cyanophenyl)piperidine-1-carbonyl]-2-methyl-phenyl]-3-(1-phenoxypropan-2-yl)urea], the inhibition at 100 µM was 90.9%.

`Cc1ccc(C(=O)N2CCC(c3ccc(C#N)cc3)CC2)cc1NC(=O)N1CCOCC1` [Example 2, N-[5-[4-(4-cyanophenyl)piperidine-1-carbonyl]-2-methyl-phenyl]morpholine-4-carboxamide]: the inhibition at 100 µM was 79.7%.

On to `Cc1ccc(C(=O)N2CCC(c3ccc(C#N)cc3)CC2)cc1NC(=O)NCCCc1cn[nH]c1C` [Example 200, 1-[5-[4-(4-cyanophenyl)piperidine-1-carbonyl]-2-methyl-phenyl]-3-[3-(3-methyl-2H-pyrazol-4-yl)propyl]urea], for which the inhibition at 100 µM turned out to be 91.8%.

On to `Cc1ccc(C(=O)N2CCC(c3ccc(C#N)cc3)CC2)cc1NC(=O)NCCCNS(C)(=O)=O` [Example 215, 1-[5-[4-(4-cyanophenyl)piperidine-1-carbonyl]-2-methyl-phenyl]-3-(3-methanesulfonamidopropyl)urea], for which the inhibition at 100 µM was determined as 100%.

With `Cc1ccc(C(=O)N2CCC(c3ccc(C#N)cc3)CC2)cc1NC(=O)NC1Cc2ccncc2NC1=O` (stereo not drawn) [Example 99, 1-[5-[4-(4-cyanophenyl)piperidine-1-carbonyl]-2-methyl-phenyl]-3-(2-oxo-3,4-dihydro-1H-1,7-naphthyridin-3-yl)urea], the inhibition at 100 µM was determined as 90.2%.

Staying with this test, now noted: FAS enzyme assay, IC50 from fitted sigmoid curves.
For `Cc1ccc(C(=O)N2CCC(c3cccc(Cl)c3)CC2)cc1NC(=O)NC(C)C` [1-[5-[4-(3-chlorophenyl)piperidine-1-carbonyl]-2-methylphenyl]-3-propan-2-ylurea], the “IC50, inhibition of human Fatty Acid Synthase” value is “do not have IC50s in the range of about 0.001 μM to about 30 μM”.

Broadly, the inhibition is the drop in the measured response relative to a control, in per cent.
